Patent US20260285850A1, “SUBSTITUTED OXAZOLIDINONES AND IMIDAZOLINONES AS HERBICIDES” (FMC CORPORATION, priority 2023, published 2026)

Assays:
Type in all cases: in vivo
[1] = tested on: barnyardgrass (Echinochloa crus-galli); experiment: Test A preemergence soil spray, visual injury rating 0-100; settings: 10 days
Procedure, shortened: (§1)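 Visual injury, scored 0-100 (100 = complete control) against untreated plants, 10 days after greenhouse treatment. Test chemicals in surfactant-containing non-phytotoxic solvent were applied in loam soil and sand, as a preemergence soil spray on seeds or postemergence to plants at the one- to two-leaf stage.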

[2] = tested on: blackgrass (Alopecurus myosuroides); experiment: as above; settings: 10 days
Procedure, shortened: as §1

[3] = tested on: corn (Zea mays); experiment: as above; settings: 10 days
Procedure, shortened: as §1

[4] = tested on: green foxtail (Setaria viridis); experiment: as above; settings: 10 days
Procedure, shortened: as §1

[5] = tested on: kochia (Bassia scoparia); experiment: as above; settings: 10 days
Procedure, shortened: as §1

[6] = tested on: oat, wild (wild oat, Avena fatua); experiment: as above; settings: 10 days
Procedure, shortened: as §1

[7] = tested on: palmer (palmer amaranth, palmer pigweed, Amaranthus palmeri); experiment: as above; settings: 10 days
Procedure, shortened: as §1

[8] = tested on: ragweed (common ragweed, Ambrosia artemisiifolia); experiment: as above; settings: 10 days
Procedure, shortened: as §1

[9] = tested on: ryegrass, Italian (italian ryegrass, Lolium multiflorum); experiment: as above; settings: 10 days
Procedure, shortened: as §1

[10] = tested on: soybean (Glycine max); experiment: as above; settings: 10 days
Procedure, shortened: as §1

[11] = tested on: wheat (Triticum aestivum); experiment: as above; settings: 10 days
Procedure, shortened: as §1

[12] = tested on: barnyardgrass (Echinochloa crus-galli); experiment: Test A postemergence application, visual injury rating 0-100
Procedure, shortened: as §1

[13] = tested on: blackgrass (Alopecurus myosuroides); experiment: as above
Procedure, shortened: as §1

[14] = tested on: corn (Zea mays); experiment: as above
Procedure, shortened: as §1

[15] = tested on: galium (catchweed bedstraw, Galium aparine); experiment: as above
Procedure, shortened: as §1

[16] = tested on: green foxtail (Setaria viridis); experiment: as above
Procedure, shortened: as §1

[17] = tested on: horseweed (Erigeron canadensis); experiment: as above
Procedure, shortened: as §1

[18] = tested on: kochia (Bassia scoparia); experiment: as above
Procedure, shortened: as §1

[19] = tested on: oat, wild (wild oat, Avena fatua); experiment: as above
Procedure, shortened: as §1

[20] = tested on: palmer (palmer amaranth, palmer pigweed, Amaranthus palmeri); experiment: as above
Procedure, shortened: as §1

[21] = tested on: ragweed (common ragweed, Ambrosia artemisiifolia); experiment: as above
Procedure, shortened: as §1

[22] = tested on: ryegrass, Italian (italian ryegrass, Lolium multiflorum); experiment: as above
Procedure, shortened: as §1

[23] = tested on: soybean (Glycine max); experiment: as above
Procedure, shortened: as §1

[24] = tested on: wheat (Triticum aestivum); experiment: as above
Procedure, shortened: as §1

[25] = tested on: barnyardgrass (Echinochloa crusgalli); experiment: Test B flooded paddy test, visual plant response rating 0-100; settings: 250 g ai/ha, Flood, applied to paddy water, evaluated after 13 days
Procedure, shortened: (§2)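 Plants were grown to the 2-leaf stage, then pots were flooded to 3 cm above the soil and test compounds were applied directly into the paddy water. Water depth was held there throughout; after 13 days in a greenhouse, injury was scored visually against untreated controls.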

[26] = tested on: ducksalad (Heteranthera limosa); experiment: as above; settings: 250 g ai/ha, Flood, applied to paddy water, evaluated after 13 days
Procedure, shortened: as §2

[27] = tested on: rice (Oryza sativa); experiment: as above; settings: 250 g ai/ha, Flood, applied to paddy water, evaluated after 13 days
Procedure, shortened: as §2

[28] = tested on: sedge, umbrella (small-flower umbrella sedge, Cyperus difformis); experiment: as above; settings: 250 g ai/ha, Flood, applied to paddy water, evaluated after 13 days
Procedure, shortened: as §2

[29] = 62 g ai/ha, 0 = no effect, 100 = complete control
[30] = 62 g ai/ha, postemergence, 10 days, 0 = no effect, 100 = complete control
[31] = Postemergence, 16 g ai/ha, greenhouse 10 days, 0 no effect, 100 complete control

C=CC1(C(=O)NC2CC(C(=O)OC)C2)CN(c2cc(F)cc(F)c2)C(=O)O1 (stereo not shown) [Compound 175]
Barnyardgrass plant response rating ([1]; 16 g ai/ha, 0 to 100 scale): 0
Barnyardgrass plant response rating (0-100) [1, 29]: 50
Blackgrass plant response rating ([2]; 16 g ai/ha, 0 to 100 scale): 40
Blackgrass plant response rating (0-100) [2, 29]: 60
Corn plant response rating ([3]; 16 g ai/ha, 0 to 100 scale): 0
Corn plant response rating (0-100) [3, 29]: 0
Foxtail, Green plant response rating ([4]; 16 g ai/ha, 0 to 100 scale): 0
Foxtail, Green plant response rating (0-100) [4, 29]: 90
Kochia plant response rating ([5]; 16 g ai/ha, 0 to 100 scale): 0
Kochia plant response rating (0-100) [5, 29]: 0
Oat, Wild plant response rating ([6]; 16 g ai/ha, 0 to 100 scale): 0
Oat, Wild plant response rating (0-100) [6, 29]: 0
Pigweed, Palmer plant response rating ([7]; 16 g ai/ha, 0 to 100 scale): 0
Pigweed, Palmer plant response rating (0-100) [7, 29]: 0
Ragweed plant response rating ([8]; 16 g ai/ha, 0 to 100 scale): 0
Ragweed plant response rating (0-100) [8, 29]: 0
Ryegrass, Italian plant response rating ([9]; 16 g ai/ha, 0 to 100 scale): 10
Ryegrass, Italian plant response rating (0-100) [9, 29]: 90
Soybean plant response rating ([10]; 16 g ai/ha, 0 to 100 scale): 0
Soybean plant response rating (0-100) [10, 29]: 0
Wheat plant response rating ([11]; 16 g ai/ha, 0 to 100 scale): 40
Wheat plant response rating (0-100) [11, 29]: 90
Barnyardgrass plant response rating (0-100) [12, 30]: 70
Barnyardgrass plant response rating (0 to 100 scale) [12, 31]: 0
Blackgrass plant response rating (0-100) [13, 30]: 90
Blackgrass plant response rating (0 to 100 scale) [13, 31]: 60
Corn plant response rating (0-100) [14, 30]: 20
Corn plant response rating (0 to 100 scale) [14, 31]: 0
Galium plant response rating (0-100) [15, 30]: 90
Galium plant response rating (0 to 100 scale) [15, 31]: 90
Foxtail, Green plant response rating (0-100) [16, 30]: 90
Foxtail, Green plant response rating (0 to 100 scale) [16, 31]: 30
Horseweed plant response rating (0-100) [17, 30]: 0
Horseweed plant response rating (0 to 100 scale) [17, 31]: 0
Kochia plant response rating (0-100) [18, 30]: 0
Kochia plant response rating (0 to 100 scale) [18, 31]: 0
Oat, Wild plant response rating (0-100) [19, 30]: 80
Oat, Wild plant response rating (0 to 100 scale) [19, 31]: 60
Pigweed, Palmer plant response rating (0-100) [20, 30]: 10
Pigweed, Palmer plant response rating (0 to 100 scale) [20, 31]: 0
Ragweed plant response rating (0-100) [21, 30]: 0
Ragweed plant response rating (0 to 100 scale) [21, 31]: 0
Ryegrass, Italian plant response rating (0-100) [22, 30]: 100
Ryegrass, Italian plant response rating (0 to 100 scale) [22, 31]: 70
Soybean plant response rating (0-100) [23, 30]: 60
Soybean plant response rating (0 to 100 scale) [23, 31]: 0
Wheat plant response rating (0-100) [24, 30]: 70
Wheat plant response rating (0 to 100 scale) [24, 31]: 30
Plant response rating, Barnyardgrass (0 to 100 scale, 0 is no effect and 100 is complete control) [25]: 0
Plant response rating, Ducksalad (0 to 100 scale, 0 is no effect and 100 is complete control) [26]: 0
Plant response rating, Rice (0 to 100 scale, 0 is no effect and 100 is complete control) [27]: 0
Plant response rating, Sedge, Umbrella (0 to 100 scale, 0 is no effect and 100 is complete control) [28]: 0
